Experimental data published in the supplement of paper PMC11061612.

Key:
[1] = compound: CC(=O)Nc1cccc(-n2c(=O)n(C3CC3)c(=O)c3c(Nc4ccc(I)cc4F)n(C)c(=O)c(C)c32)c1 [Trametinib]; details: max 1 µM
Method in brief: (§1)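 In 1536-well plates, cancer cell lines in 7.5 μl DMEM/F12 or RPMI with 10% FBS spent 24 hours at 37°C and 5% CO2 and were then dosed for 72 hours with final DMSO typically 0.2%. Viability was read by CellTiter-Glo 2.0 luminescence and scaled between blank-well and DMSO-well means. The single-agent IC50 was fitted from dose responses using a logistic curve in a non-linear mixed effects model, and that logistic curve had two parameters.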

[2] = compound: CC(C)n1c(=O)n(C)c2cnc3cc(F)c(-c4ccc(OCCCN5CCCCC5)nc4)cc3c21 [AZD1390]; details: max 0.3 µM
Method in brief: as §1

[3] = compound: COc1nnc2ccc(N3CCC(c4ccc(OCCN5CCN(C)C(=O)[C@H]5C)cc4)CC3)nn12 [AZD5153]; details: max 1 µM
Method in brief: as §1

[4] = compound: CC1=CN2[C@@H](C1)C=NC3=CC(=C(C=C3C2=O)OC)OCCCCCOC4=C(C=C5C(=C4)N=C[C@@H]6CC(=CN6C5=O)C)OC [SG3199]; details: max 0.001 µM
Method in brief: as §1

[5] = compound: COc1cc2ncnc(Nc3ccc(F)c(Cl)c3)c2cc1OCCCN1CCOCC1 [Gefitinib]; details: max 10 µM
Method in brief: as §1

[6] = compound: C[C@@H](Nc1cc(F)cc(F)c1)c1cc(C(=O)N(C)C)cc2c(=O)cc(N3CCOCC3)oc12 [AZD8186]; details: max 3 µM
Method in brief: as §1

[7] = compound: CN(C)CCCOc1ccc(-c2ccc3ncc4c(c3c2)n(C2CCOCC2)c(=O)n4C)cn1 [AZD0156]; details: max 3 µM
Method in brief: as §1

[8] = compound: C1CN(CCC1(C(=O)N[C@@H](CCO)C2=CC=C(C=C2)Cl)N)C3=NC=NC4=C3C=CN4 [Capivasertib]; details: max 10 µM
Method in brief: as §1

[9] = compound: C[C@@H](Oc1cc(-c2cnn(C3CCNCC3)c2)cnc1N)c1c(Cl)ccc(F)c1Cl [Crizotinib]; details: max 10 µM
Method in brief: as §1

[10] = compound: CS(=O)(=O)CCNCc1ccc(-c2ccc3ncnc(Nc4ccc(OCc5cccc(F)c5)c(Cl)c4)c3c2)o1 [Lapatinib]; details: max 10 µM
Method in brief: as §1

[11] = compound: CC1=C(C(=CC=C1)Cl)NC(=O)C2=CN=C(S2)NC3=CC(=NC(=N3)C)N4CCN(CC4)CCO [Dasatinib]; details: max 2 µM
Method in brief: as §1

[12] = compound: COc1cccc2c1C(=O)c1c(O)c3c(c(O)c1C2=O)C[C@@](O)(C(=O)CO)C[C@@H]3O[C@H]1C[C@H](N)[C@H](O)[C@H](C)O1 [Doxorubicin]; details: max 1 µM
Method in brief: as §1

[13] = compound: CCN(CCO)CCCOc1ccc2c(Nc3cc(CC(=O)Nc4cccc(F)c4)[nH]n3)ncnc2c1 [AZD2811]; details: max 1 µM
Method in brief: as §1

[14] = compound: Cc1c2c(nn1C)CSCc1cc(n(C)n1)CSc1cc(c3ccccc3c1)OCCCc1c(C(=O)O)n(C)c3c-2c(Cl)ccc13 [AZD5991]; details: max 1 µM
Method in brief: as §1

[15] = compound: CN(CC[C@H](CSC1=CC=CC=C1)NC2=C(C=C(C=C2)S(=O)(=O)NC(=O)C3=CC=C(C=C3)N4CCC(CC4)[C@H](C5=CC=CC=C5C6=CC=C(C=C6)Cl)O)S(=O)(=O)C(F)(F)F)CCO [AZD4320]; details: max 1 µM
Method in brief: as §1

[16] = compound: C[C@@H](c1ccc2nccn2c1)n1nnc2ncc(-c3cnn(C)c3)nc21 [Savolitinib]; details: max 1 µM
Method in brief: as §1

[17] = compound: O=C(c1cc(Cc2n[nH]c(=O)c3ccccc23)ccc1F)N1CCN(C(=O)C2CC2)CC1 [Olaparib]; details: max 10 µM
Method in brief: as §1

[18] = compound: COc1cccc(OCCCN)c1-c1cc(Nc2cnc(C#N)cn2)n[nH]1 [Prexasertib]; details: max 1 µM
Method in brief: as §1

[19] = compound: CC(=O)c1c(C)c2cnc(Nc3ccc(N4CCNCC4)cn3)nc2n(C2CCCC2)c1=O [Palbociclib]; details: max 10 µM
Method in brief: as §1

[20] = compound: Cc1nc(-c2cn3c(n2)-c2ccc(-c4cnn(C(C)(C)C(N)=O)c4)cc2OCC3)n(C(C)C)n1 [Taselisib]; details: max 10 µM
Method in brief: as §1

[21] = compound: Cn1cnc2c(F)c(Nc3ccc(Br)cc3Cl)c(C(=O)NOCCO)cc21 [Selumetinib]; details: max 10 µM
Method in brief: as §1

[22] = compound: CCc1c2c(nc3ccc(O)cc13)-c1cc3c(c(=O)n1C2)COC(=O)[C@]3(O)CC [SN-38]; details: max 0.3 µM
Method in brief: as §1

[23] = compound: COc1cc(Nc2ncc3c(n2)-c2ccc(Cl)cc2C(c2c(F)cccc2OC)=NC3)ccc1C(=O)O [Alisertib]; details: max 10 µM
Method in brief: as §1

[24] = compound: C=CCn1c(=O)c2cnc(Nc3ccc(N4CCN(C)CC4)cc3)nc2n1-c1cccc(C(C)(C)O)n1 [AZD1775]; details: max 3 µM
Method in brief: as §1

[25] = compound: Cc1cc2ncnn2cc1Nc1ncc2c(n1)n(C1CCOCC1)c(=O)n2C [AZD7648]; details: max 10 µM
Method in brief: as §1

[26] = compound: C[C@@H]1COCCN1C2=NC(=NC(=C2)C3(CC3)[S@](=N)(=O)C)C4=C5C=CNC5=NC=C4 [AZD6738]; details: max 10 µM
Method in brief: as §1

[27] = compound: CC1(C)CCC(CN2CCN(c3ccc(C(=O)NS(=O)(=O)c4ccc(NCC5CCOCC5)c([N+](=O)[O-])c4)c(Oc4cnc5[nH]ccc5c4)c3)CC2)=C(c2ccc(Cl)cc2)C1 [Venetoclax]; details: max 1 µM
Method in brief: as §1

Cell Line	IC50, cell viability 72 h [1]	IC50, cell viability 72 h [2]	IC50, cell viability 72 h [3]	IC50, cell viability 72 h [4]	IC50, cell viability 72 h [5]	IC50, cell viability 72 h [6]	IC50, cell viability 72 h [7]	IC50, cell viability 72 h [8]	IC50, cell viability 72 h [9]	IC50, cell viability 72 h [10]	IC50, cell viability 72 h [11]	IC50, cell viability 72 h [12]	IC50, cell viability 72 h [13]	IC50, cell viability 72 h [14]	IC50, cell viability 72 h [15]	IC50, cell viability 72 h [16]	IC50, cell viability 72 h [17]	IC50, cell viability 72 h [18]	IC50, cell viability 72 h [19]	IC50, cell viability 72 h [20]	IC50, cell viability 72 h [21]	IC50, cell viability 72 h [22]	IC50, cell viability 72 h [23]	IC50, cell viability 72 h [24]	IC50, cell viability 72 h [25]	IC50, cell viability 72 h [26]	IC50, cell viability 72 h [27]
5637 (Bladder Carcinoma)	> 1 µM	> 0.3 µM	0.9 µM	> 0.001 µM	> 10 µM	> 3 µM	> 3 µM	> 10 µM	> 10 µM	7.56 µM	0.26 µM	> 1 µM	0.251 µM	> 1 µM	> 1 µM	> 1 µM	> 10 µM	0.0532 µM	> 10 µM	8.9 µM	> 10 µM	0.0379 µM	1.01 µM	0.385 µM	> 10 µM	6.46 µM	> 1 µM
A204 (Rhabdomyosarcoma)	> 1 µM	> 0.3 µM	> 1 µM	> 0.001 µM	> 10 µM	> 3 µM	> 3 µM	> 10 µM	> 10 µM	> 10 µM	1.39 µM	0.528 µM	> 1 µM	> 1 µM	> 1 µM	> 1 µM	> 10 µM	0.362 µM	> 10 µM	4.32 µM	> 10 µM	0.132 µM	> 10 µM	> 3 µM	> 10 µM	> 10 µM	> 1 µM
A253 (Head and Neck Carcinoma)	0.746 µM	> 0.3 µM	> 1 µM	> 0.001 µM	> 10 µM	> 3 µM	> 3 µM	4.08 µM	> 10 µM	> 10 µM	> 2 µM	0.177 µM	> 1 µM	0.447 µM	> 1 µM	> 1 µM	> 10 µM	0.11 µM	> 10 µM	6.73 µM	> 10 µM	0.0187 µM	> 10 µM	1.13 µM	> 10 µM	4.57 µM	> 1 µM
AU565 (Breast Carcinoma)	> 1 µM	> 0.3 µM	> 1 µM	> 0.001 µM	2.74 µM	> 3 µM	> 3 µM	7.95 µM	> 10 µM	0.358 µM	> 2 µM	0.634 µM	> 1 µM	0.0683 µM	> 1 µM	> 1 µM	> 10 µM	0.133 µM	> 10 µM	3.15 µM	> 10 µM	0.0145 µM	9.28 µM	0.435 µM	> 10 µM	> 10 µM	> 1 µM
